Data taken from publication PMC5421785, “Citrullination only infrequently impacts peptide binding to HLA class II MHC” (PLoS ONE, 2017).
Where two headings read alike, the source gives them in different places. Blank lines part the entries; values can stand above or below the compound they belong to. Square brackets hold non-standard residues; d marks the D form. Ends that are not written are not given here. Peptide text beside a SMILES is read from it. Cit = NC(=O)NCCC[C@H](N)C(=O)O

How the values were obtained:
[1] = target: T1, HLA-DRB1*04:01 (Homo sapiens, UniProt P01903+P01911, A100K/A169T/F76Y/I96L/K127E/L162R/M171V/N62H/P40V/Q125Y/R42H/S133A/S149N/S66Y/V115G/V209L/W38E); assay: HLA class II peptide binding, inhibition of radiolabeled peptide binding to purified MHC
T1 construct: EBV transformed homozygous cell lines were used as sources of MHC molecules; endogenous in cells; host or cells: EBV transformed homozygous cell lines

[2] = target: T2, HLA-DRB1*01:01 (Homo sapiens, UniProt P01903+P01911, A100R/D57E/F55L/F60I/F76Y/I96L/L162R/M171V/P40L/Q125E/R42F/V115G/Y59C); assay: as above
T2 construct: EBV transformed homozygous cell lines were used as sources of MHC molecules; endogenous in cells; host or cells: EBV transformed homozygous cell lines

[3] = citrullinated 15-mer (X), purified MHC, inhibition of radiolabeled peptide binding, dash = IC50 >40,000 nM, read-out: DRB1*04:01 binding capacity, Cit peptide (IC50 nM)
[4] = citrullinated 15-mer (X), purified MHC, inhibition of radiolabeled peptide binding, dash = IC50 >40,000 nM, read-out: DRB1*01:01 binding capacity, Cit peptide (IC50 nM)
[5] = read-out: DRB1*04:01 binding capacity, WT peptide (IC50 nM)
[6] = read-out: DRB1*01:01 binding capacity, WT peptide (IC50 nM)
[7] = citrullinated peptide as listed (X at Cit position), read-out: DRB1*04:01 binding capacity Cit peptide (IC50 nM)
[8] = citrullinated peptide as listed (X at Cit position), read-out: DRB1*01:01 binding capacity Cit peptide (IC50 nM)
[9] = value of the wild-type (non-citrullinated) counterpart of the listed peptide, read-out: DRB1*01:01 binding capacity WT peptide (IC50 nM)
[10] = citrullinated 15-mer peptide (X = citrulline), purified HLA-DRB1*04:01, read-out: DRB1*04:01 binding capacity, Cit peptide (IC50 nM)
[11] = citrullinated 15-mer peptide (X = citrulline), purified HLA-DRB1*01:01, read-out: DRB1*01:01 binding capacity, Cit peptide (IC50 nM)

Compound: C[C@H](NC(=O)[C@@H]1CCCN1C(=O)CNC(=O)[C@H](CCC(N)=O)NC(=O)[C@@H]1CCCN1C(=O)CNC(=O)[C@@H]1CCCN1C(=O)[C@@H]1CCCN1)C(=O)NCC(=O)N[C@@H](CCC(=O)O)C(=O)N[C@@H](CCC(N)=O)C(=O)NCC(=O)N1CCC[C@H]1C(=O)N[C@@H](CCCNC(N)=O)C(=O)NCC(=O)O [PPGPQGPAGEQGPXG] (H-PPGPQGPAGEQGP[Cit]G-OH)
IC50 ([1]; citrullinated 15-mer peptide (X = citrulline), […], read-out: DRB1*04:01 binding capacity, Cit peptide (IC50 nM)): > 40000 nM | IC50 ([2]; citrullinated 15-mer peptide (X = citrulline), […], read-out: DRB1*01:01 binding capacity, Cit peptide (IC50 nM)): 35600 nM

Compound: CC(C)C[C@H](NC(=O)[C@H](C)NC(=O)[C@H](C)NC(=O)[C@@H](NC(=O)[C@H](CC(C)C)NC(=O)[C@H](CC(=O)O)NC(=O)[C@@H]1CCCN1C(=O)[C@H](CCCCN)NC(=O)[C@@H](N)CO)[C@@H](C)O)C(=O)N[C@@H](CCCNC(N)=O)C(=O)N[C@@H](CC(=O)O)C(=O)N[C@H](C(=O)N[C@@H](CCCNC(=N)N)C(=O)N[C@@H](CCC(N)=O)C(=O)N[C@@H](CCC(N)=O)C(=O)O)C(C)C [SKPDLTAALXDVRQQ] (H-SKPDLTAAL[Cit]DVRQQ-OH)
IC50 [1, 3]: 30300 nM | IC50 [2, 4]: 1370 nM

Compound: ELRRQVDQLTNDKAR [Vimentin 156 WT]
IC50 [1, 5]: 5240 nM | IC50 [2, 6]: 568 nM

Compound: CSCC[C@H](NC(=O)[C@H](CCC(=O)O)NC(=O)[C@H](CCC(=O)O)NC(=O)[C@H](CCC(=O)O)NC(=O)[C@H](Cc1ccc(O)cc1)NC(=O)[C@H](CC(C)C)NC(=O)[C@H](CC(=O)O)NC(=O)CNC(=O)[C@@H](N)CC(C)C)C(=O)N[C@@H](CCCNC(=N)N)C(=O)N[C@@H](CCC(=O)O)C(=O)N[C@@H](CC(C)C)C(=O)N[C@@H](CCCNC(N)=O)C(=O)N[C@@H](CCCNC(=N)N)C(=O)N[C@@H](CCC(N)=O)C(=O)O [LGDLYEEEMRELXRQ]
IC50 [1, 3]: > 40000 nM | IC50 [2, 4]: 12500 nM

Compound: CC(C)C[C@H](NC(=O)[C@H](CO)NC(=O)[C@H](C)NC(=O)[C@H](CC(N)=O)NC(=O)[C@H](CC(=O)O)NC(=O)[C@@H](NC(=O)[C@H](CC(=O)O)NC(=O)[C@H](CCC(N)=O)NC(=O)[C@H](CCCNC(N)=O)NC(=O)[C@H](Cc1ccccc1)NC(=O)[C@H](CO)NC(=O)[C@H](CCC(N)=O)NC(=O)[C@H](CC(C)C)NC(=O)[C@@H](NC(=O)[C@@H](N)CC(N)=O)[C@@H](C)O)C(C)C)C(=O)O [NTLQSFXQDVDNASL] (H-NTLQSF[Cit]QDVDNASL-OH)
IC50 [1, 3]: 702 nM | IC50 [2, 4]: 2000 nM

Compound: CC[C@H](C)[C@H](N)C(=O)N[C@@H](CCCNC(=N)N)C(=O)N[C@@H](C)C(=O)N[C@@H](CCC(=O)O)C(=O)NCC(=O)N[C@@H](CC(N)=O)C(=O)N[C@@H](CO)C(=O)N[C@@H](CCCNC(N)=O)C(=O)N[C@@H](Cc1ccccc1)C(=O)N[C@H](C(=O)N[C@@H](Cc1ccc(O)cc1)C(=O)N[C@H](C(=O)N[C@@H](C)C(=O)N[C@@H](CC(C)C)C(=O)N[C@@H](CCCCN)C(=O)O)[C@@H](C)O)[C@@H](C)O [IRAEGNSXFTYTALK] (H-IRAEGNS[Cit]FTYTALK-OH)
IC50 [1, 7]: 849 nM | IC50 [2, 8]: 0.6 nM | IC50 [2, 9]: 1.3 nM

Compound: CC(C)C[C@H](NC(=O)[C@@H](NC(=O)[C@H](C)NC(=O)[C@H](C)NC(=O)[C@@H](NC(=O)[C@@H](N)CC(C)C)C(C)C)C(C)C)C(=O)N[C@@H](CCCNC(N)=O)C(=O)N[C@@H](CS)C(=O)N[C@@H](CCC(N)=O)C(=O)NCC(=O)N[C@@H](CCC(N)=O)C(=O)N[C@@H](CC(=O)O)C(=O)N[C@H](C(=O)N[C@@H](CCC(N)=O)C(=O)N[C@@H](CCC(=O)O)C(=O)O)C(C)C [LVAAVLXCQGQDVQE] (H-LVAAVL[Cit]CQGQDVQE-OH)
IC50 [1, 10]: 32700 nM | IC50 [2, 11]: 93 nM

Compound: CC(C)C[C@H](NC(=O)[C@H](CO)NC(=O)[C@H](Cc1ccccc1)NC(=O)[C@H](CC(=O)O)NC(=O)[C@@H](NC(=O)[C@H](CO)NC(=O)[C@H](CC(=O)O)NC(=O)[C@H](CCC(N)=O)NC(=O)[C@H](CC(C)C)NC(=O)[C@H](CC(C)C)NC(=O)[C@H](CCCNC(N)=O)NC(=O)[C@@H](NC(=O)CN)C(C)C)C(C)C)C(=O)N[C@@H](C)C(=O)N[C@@H](CC(=O)O)C(=O)O [GVXLLQDSVDFSLAD]
IC50 [1, 3]: 918 nM | IC50 [2, 4]: 541 nM

Compound: CC(C)C[C@H](NC(=O)[C@H](CC(N)=O)NC(=O)[C@@H](NC(=O)[C@H](CCC(=O)O)NC(=O)[C@H](CCCNC(N)=O)NC(=O)[C@H](CC(C)C)NC(=O)[C@H](CC(N)=O)NC(=O)[C@@H](N)CC(C)C)[C@@H](C)O)C(=O)N[C@@H](CC(=O)O)C(=O)N[C@@H](CO)C(=O)N[C@@H](CC(C)C)C(=O)N1CCC[C@H]1C(=O)N[C@@H](CC(C)C)C(=O)N[C@H](C(=O)N[C@@H](CC(=O)O)C(=O)O)C(C)C [LNLXETNLDSLPLVD]
IC50 [1, 10]: 4340 nM | IC50 [2, 11]: 69 nM

Compound: CC(C)C[C@H](NC(=O)[C@H](CC(N)=O)NC(=O)[C@H](CC(=O)O)NC(=O)[C@H](CCCNC(N)=O)NC(=O)[C@H](CCC(=O)O)NC(=O)[C@@H](NC(=O)[C@H](CCC(=O)O)NC(=O)[C@@H](NC(=O)[C@H](CCCNC(=N)N)NC(=O)[C@H](C)NC(=O)[C@H](CCCCN)NC(=O)[C@H](CC(=O)O)NC(=O)[C@@H](N)CC(N)=O)C(C)C)C(C)C)C(=O)N[C@@H](C)C(=O)N[C@@H](CCC(=O)O)C(=O)O [NDKARVEVEXDNLAE] (H-NDKARVEVE[Cit]DNLAE-OH)
IC50 [1, 3]: 1410 nM | IC50 [2, 4]: 578 nM

Compound: SKPDLTAALRDVRQQ [Vimentin 261 WT]
IC50 [1, 5]: > 40000 nM | IC50 [2, 6]: 5190 nM

Compound: C[C@H](NC(=O)CNC(=O)[C@@H]1CCCN1C(=O)[C@@H]1CCCN1C(=O)CNC(=O)[C@H](CCC(N)=O)NC(=O)[C@H](C)NC(=O)CNC(=O)[C@H](CCCNC(N)=O)NC(=O)[C@H](C)NC(=O)CNC(=O)[C@H](CCCCN)NC(=O)[C@@H]1CCCN1C(=O)CNC(=O)[C@@H](N)[C@@H](C)O)C(=O)O [TGPKGAXGAQGPPGA] (H-TGPKGA[Cit]GAQGPPGA-OH)
IC50 [1, 10]: > 40000 nM | IC50 [2, 11]: 2690 nM

Compound: QGKSRLGDLYEEEMR [Vimentin 141 WT]
IC50 [1, 5]: > 40000 nM | IC50 [2, 6]: 34600 nM

Continued, values first:

IC50 [1, 3]: 7760 nM | IC50 [2, 4]: 19 nM
Compound: CC(C)C[C@H](NC(=O)[C@H](CC(N)=O)NC(=O)[C@H](CCCCN)NC(=O)[C@H](C)NC(=O)[C@H](C)NC(=O)[C@@H](NC(=O)[C@H](CO)NC(=O)[C@H](CCC(=O)O)NC(=O)[C@H](Cc1ccc(O)cc1)NC(=O)[C@H](CCC(N)=O)NC(=O)[C@H](CCC(N)=O)NC(=O)[C@H](CCCNC(N)=O)NC(=O)[C@@H](NC(=O)[C@@H](N)CC(=O)O)C(C)C)C(C)C)C(=O)N[C@@H](CCC(N)=O)C(=O)O [DVXQQYESVAAKNLQ] (H-DV[Cit]QQYESVAAKNLQ-OH)

IC50 [1, 5]: 6370 nM | IC50 [2, 6]: 10 nM
Compound: DVRQQYESVAAKNLQ [Vimentin 271 WT]

IC50 [1, 3]: 6590 nM | IC50 [2, 4]: 7.8 nM
Compound: CC[C@H](C)[C@H](NC(=O)[C@H](CCCCN)NC(=O)[C@H](CC(N)=O)NC(=O)[C@H](CCC(N)=O)NC(=O)[C@H](CCC(N)=O)NC(=O)[C@H](CCC(=O)O)NC(=O)[C@H](CC(C)C)NC(=O)[C@H](Cc1ccccc1)NC(=O)[C@H](CCCNC(N)=O)NC(=O)[C@@H](N)C(C)C)C(=O)N[C@@H](CC(C)C)C(=O)N[C@@H](CC(C)C)C(=O)N[C@@H](C)C(=O)N[C@@H](CCC(=O)O)C(=O)N[C@@H](CC(C)C)C(=O)O [VXFLEQQNKILLAEL]

IC50 [1, 10]: 17500 nM | IC50 [2, 11]: 24200 nM
Compound: CSCC[C@H](NC(=O)[C@H](CCC(N)=O)NC(=O)[C@H](CCCNC(=N)N)NC(=O)[C@H](CCC(=O)O)NC(=O)[C@H](CC(C)C)NC(=O)[C@H](CO)NC(=O)[C@H](CCC(=O)O)NC(=O)[C@H](CC(N)=O)NC(=O)[C@@H](NC(=O)CNC(=O)[C@H](CCCCN)NC(=O)[C@H](CC(C)C)NC(=O)[C@H](C)NC(=O)[C@@H](N)CC(=O)O)[C@@H](C)O)C(=O)N[C@@H](CCCNC(N)=O)C(=O)O [DALKGTNESLERQMX] (H-DALKGTNESLERQM[Cit]-OH)

IC50 [1, 3]: > 40000 nM | IC50 [2, 4]: 148 nM
Compound: CC[C@H](C)[C@H](NC(=O)[C@H](CCC(=O)O)NC(=O)[C@H](CCC(=O)O)NC(=O)[C@H](CCC(N)=O)NC(=O)[C@H](CC(C)C)NC(=O)[C@H](CO)NC(=O)[C@H](CCC(=O)O)NC(=O)[C@@H](NC(=O)[C@H](CCCCN)NC(=O)[C@H](CCCNC(N)=O)NC(=O)[C@@H](N)CCC(=O)O)C(C)C)C(=O)N[C@@H](C)C(=O)N[C@@H](Cc1ccccc1)C(=O)N[C@@H](CC(C)C)C(=O)N[C@@H](CCCCN)C(=O)O [EXKVESLQEEIAFLK] (H-E[Cit]KVESLQEEIAFLK-OH)

IC50 [1, 7]: 316 nM | IC50 ([1]; value of the wild-type (non-citrullinated) counterpart of the listed peptide, read-out: DRB1*04:01 binding capacity WT peptide (IC50 nM)): 314 nM | IC50 [2, 8]: 6.9 nM | IC50 [2, 9]: 14 nM
Compound: CC[C@H](C)[C@H](NC(=O)[C@H](CC(=O)O)NC(=O)[C@@H](NC(=O)[C@@H](NC(=O)[C@@H]1CCCN1C(=O)[C@H](CC(C)C)NC(=O)[C@H](CCCNC(N)=O)NC(=O)[C@H](CO)NC(=O)[C@@H](NC(=O)[C@H](CCCCN)NC(=O)[C@H](CCC(N)=O)NC(=O)[C@H](CO)NC(=O)[C@H](CCCNC(=N)N)NC(=O)[C@H](Cc1ccc(O)cc1)NC(=O)[C@@H](N)CCC(=O)O)[C@@H](C)O)[C@@H](C)CC)[C@@H](C)CC)C(=O)O [EYRSQKTSXLPIIDI] (H-EYRSQKTS[Cit]LPIIDI-OH)
